Experiments:
[1] = LNP encapsulation efficiency by Ribogreen assay; format: physicochemical; conditions: LNP: 47.5% ionizable lipid, 40% cholesterol, 2.5% PEG-2000 DMG, 10% DPSC, N/P 4-8
Procedure: (§1) LNPs were prepared with 47.5% Ionizable Lipid (e.g., a compound provided herein): 40% cholesterol: 2.5% PEG-2000 DMG; and 10% DPSC and an N/P ratio range of 4-8. LNPs were formed by microfluidic mixing of the lipid and NA solutions using a Precision Nanosystems NanoAssemblr Spark or Benchtop series Instruments, according to the manufacturers protocol. A ratio of aqueous to organic solvent of approximately 2:1 or 3:1 was maintained during mixing using differential flow rates. After mixing, LNPs were collected, diluted in phosphate buffer saline (PBS) or Tris-buffered saline (TBS) (approximately 1:1 v/v). Further buffer exchange was conducted using dialysis in PBS or TBS at 4° C. for 4 to 24 hours against a 20 kDa filter. After this initial dialysis, each individual LNP preparation was characterized via dynamic light scattering (DLS) to measure the size (e.g., diameter) and polydispersity. LNPs falling within specific diameter and polydispersity ranges were pooled, and further dialyzed against PBS or TBS at 4° C. for 1 to 4 hours against a 100 kDa dialysis cassette. After the second dialysis, LNPs were sterile filtered using 0.22 μm filter and stored at 4° C. for further use.
RNA concentration and encapsulation efficiency were determined by Ribogreen assay (BioTek Synergy LX plate reader).

[2] = LNP hydrodynamic diameter and polydispersity index by dynamic light scattering (DLS); format: physicochemical; conditions: LNP: 47.5% ionizable lipid, 40% cholesterol, 2.5% PEG-2000 DMG, 10% DPSC, N/P 4-8
Procedure: as §1
LNP hydrodynamic diameter and polydispersity index (PDI) were measured using high throughput dynamic light scattering (DLS) (Stunner, Unchained Labs). LNPs were diluted 1×TBS or PBS to an appropriate concentration and analyzed.

Spleen = assay: Barcoded pooled LNP biodistribution screen, fold above input (FAI) in spleen; format: in vivo; conditions: pooled LNP IV tail vein, mice, 4 hours post-dose
Procedure: (§2) Male and female mice aged approximately 8-12 weeks were used for studies described by the present Example. Each mouse was temporarily restrained and pooled LNP was administered IV via tail vein injection in up to five animals per experiment. Age-matched mice was also used to administer vehicle (1×TBS) via tail vein injection in up to three animals per experiment. Additional routes of administration can also be conducted including intracerebral ventricular (ICV), intracisterna manga (ICM), intrathecal (IT), intramuscular (IM), nebulization, intranasal (IN), subcutaneous (SC), intraarticular, and intradermal (ID). At 4 hours post-dose, tissues including liver, spleen, bone marrow, testes, gastrocnemius, quadricep, lung, heart, kidney, and pancreas may be collected for analysis.
(§3) Liver, kidney, lung, and muscle (e.g. skeletal and cardiac) tissues may be mechanically, and then enzymatically digested using a mixture of proteinases, then passed through a 70 μm filter to generate single cell suspensions. Spleen tissues were mechanically digested to generate single cell suspensions. Tissues were treated with ACK buffer to lyse red blood cells, and then stained with fluorescently labeled antibodies for flow cytometry and fluorescence-activated cell sorting (FACS). Commercially available antibodies were used in the present example. Using a BD FACSMelody (Becton Dickinson), samples were acquired via flow cytometry to generate gates prior to sorting. […]
(§4) To screen for preferential LNP delivery to a target tissues, the relative abundance of each barcode in one or more target tissues was measured and compared to the relative abundance of each barcode to its corresponding relative input abundance to determine fold above input (FAI) for each barcode. […]
(§5) The FAI is the normalized relative abundance of a barcode in a selected sample as compared to its frequency in the input. […] The FAI value of the barcode was calculated by normalizing the relative abundance in the barcode sequence counts in the isolated samples to its relative abundance in the administration input. […]

Lung = assay: Barcoded pooled LNP biodistribution screen, fold above input (FAI) in lung; format: in vivo; conditions: pooled LNP IV tail vein, mice, 4 hours post-dose
Procedure: as §2
Liver, kidney, lung, and muscle (e.g. skeletal and cardiac) tissues may be mechanically, and then enzymatically digested using a mixture of proteinases, then passed through a 70 μm filter to generate single cell suspensions. Spleen tissues were mechanically digested to generate single cell suspensions. Tissues were treated with ACK buffer to lyse red blood cells, and then stained with fluorescently labeled antibodies for flow cytometry and fluorescence-activated cell sorting (FACS). Commercially available antibodies were used in the present example. Using a BD FACSMelody (Becton Dickinson), samples were acquired via flow cytometry to generate gates prior to sorting. In general, the gating structure was size→singlet cells→live cells→cells of interest. T cells were defined as CD45+CD3+, monocytes are defined as CD45+CD11b+, and B cells are defined as CD45+CD19+. Endothelial cells were defined as CD31+, monocytes and Kupffer cells as CD45+CD11b+ and hepatocytes and myocytes were defined as CD31−/CD45− in the liver and muscle, respectively. Tissues from vehicle-dosed mice were used to set the gates for sorting.
RNA from tissues were extracted using the Reliaprep RNA extraction kit, and libraries were prepared using the RNAseq kit, and sequenced on either a MiSeq or NextSeq500.
as §4, §5

Liver = assay: Barcoded pooled LNP biodistribution screen, fold above input (FAI) in liver; format: in vivo; conditions: pooled LNP IV tail vein, mice, 4 hours post-dose
Procedure: as §2, §3, §4, §5

[3] = screening experiment of Table 4
[4] = screening experiment of Table 5
[5] = screening experiment of Table 6

Row | Structure (SMILES) | Mean Encapsulation Efficiency (%) [1] | Mean Diameter (nm) [2] | Mean PDI [2] | other results
1 | CC/C=C\CCCCOC(CCC(=O)OCC(COC(=O)CCCCCOC(=O)C(CCCC)CCCCCC)(COC(=O)CCCCCOC(=O)C(CCCC)CCCCCC)COC(=O)NCCN1CCCC1)OCCCC/C=C\CC (stereo not shown) [Compound 7-64, ((2-(((4,4-bis(((Z)-oct-5-en-1-yl)oxy)butanoyl)oxy)methyl)-2-((((2-(pyrrolidin-1-yl)ethyl)carbamoyl)oxy)methyl)propane-1,3-diyl)bis(oxy))bis(6-oxohexane-6,1-diyl) bis(2-butyloctanoate)] | 90.4% | 82.1 nm | 0.13 | –
2 | CC/C=C\CCCCOC(CCC(=O)OCC(COC(=O)CCCCCCOC(=O)C(CCCC)CCCCCC)(COC(=O)CCCCCCOC(=O)C(CCCC)CCCCCC)COC(=O)NCCN1CCCC1)OCCCC/C=C\CC (stereo not shown) [Compound 7-65, ((2-(((4,4-bis(((Z)-oct-5-en-1-yl)oxy)butanoyl)oxy)methyl)-2-((((2-(pyrrolidin-1-yl)ethyl)carbamoyl)oxy)methyl)propane-1,3-diyl)bis(oxy))bis(7-oxoheptane-7,1-diyl) bis(2-butyloctanoate)] | 89.2% | 82.3 nm | 0.15 | –
3 | CC/C=C\CCCCOC(CCC(=O)OCC(COC(=O)CCCCCCCOC(=O)C(CCCC)CCCCCC)(COC(=O)CCCCCCCOC(=O)C(CCCC)CCCCCC)COC(=O)NCCN1CCCC1)OCCCC/C=C\CC (stereo not shown) [Compound 7-66, 2-(((4,4-bis(((Z)-oct-5-en-1-yl)oxy)butanoyl)oxy)methyl)-2-((((2-(pyrrolidin-1-yl)ethyl)carbamoyl)oxy)methyl)propane-1,3-diyl bis(8-((2-butyloctanoyl)oxy)octanoate)] | 88.8% | 87.2 nm | 0.12 | –
4 | CC/C=C\CCCCOC(CCC(=O)OCC(COC(=O)CCCCCCC/C=C\C/C=C\CCCCC)(COC(=O)CCCCCCC/C=C\C/C=C\CCCCC)COC(=O)OCCCN(CC)CC)OCCCC/C=C\CC [Compound 7-67, 2-(((4,4-bis(((Z)-oct-5-en-1-yl)oxy)butanoyl)oxy)methyl)-2-((((3-(diethylamino)propoxy)carbonyl)oxy)methyl)propane-1,3-diyl (9Z,9′Z,12Z,12′Z)-bis(octadeca-9,12-dienoate)] | 89.5% | 87.5 nm | 0.18 | –
5 | CC/C=C\CCCCOC(CCC(=O)OCC(COC(=O)CCCCCCC/C=C\C/C=C\CCCCC)(COC(=O)CCCCCCC/C=C\C/C=C\CCCCC)COC(=O)OCC1CCCN(CC)C1)OCCCC/C=C\CC (stereo not shown) [Compound 7-68, 2-(((4,4-bis(((Z)-oct-5-en-1-yl)oxy)butanoyl)oxy)methyl)-2-(((((1-ethylpiperidin-3-yl)methoxy)carbonyl)oxy)methyl)propane-1,3-diyl (9Z,9′Z,12Z,12′Z)-bis(octadeca-9,12-dienoate)] | 90.0% | 92.9 nm | 0.14 | –
6 | CC/C=C\CCCCOC(CCC(=O)OCC(COC(=O)CCCCCCC/C=C\C/C=C\CCCCC)(COC(=O)CCCCCCC/C=C\C/C=C\CCCCC)COC(=O)OCCCN(C)CC)OCCCC/C=C\CC [Compound 7-69, 2-(((4,4-bis(((Z)-oct-5-en-1-yl)oxy)butanoyl)oxy)methyl)-2-((((3-(ethyl(methyl)amino)propoxy)carbonyl)oxy)methyl)propane-1,3-diyl (9Z,9′Z,12Z,12′Z)-bis(octadeca-9,12-dienoate)] | 88.5% | 86.1 nm | 0.15 | –
7 | CC/C=C\CCCCOC(CCC(=O)OCC(COC(=O)CCCCCCC/C=C\C/C=C\CCCCC)(COC(=O)CCCCCCC/C=C\C/C=C\CCCCC)COC(=O)NCCN1CCCC1)OCCCC/C=C\CC [Compound 7-70, 2-(((4,4-bis(((Z)-oct-5-en-1-yl)oxy)butanoyl)oxy)methyl)-2-((((2-(pyrrolidin-1-yl)ethyl)carbamoyl)oxy)methyl)propane-1,3-diyl (9Z,9′Z,12Z,12′Z)-bis(octadeca-9,12-dienoate)] | 87.0% | 88.8 nm | 0.13 | –
8 | CCCCC/C=C\C/C=C\CCCCCCCCC(CCCCCCCC/C=C\C/C=C\CCCCC)OC(=O)CCCN(C)C [MC3] | – | – | – | FAI (Spleen) (Spleen; [3]): 1.57; FAI (Spleen) (Spleen; [4]): 0.61; FAI (Spleen) (Spleen; [5]): 1.50; FAI (Lung) (Lung; screening experiment of Table 3): 0.50; FAI (Lung) (Lung; [3]): 0.86; FAI (Lung) (Lung; [4]): 1.51; FAI (Lung) (Lung; [5]): 1.68; FAI (Liver) (Liver; [3]): 1.00; FAI (Liver) (Liver; [4]): 0.30; FAI (Liver) (Liver; [5]): 0.73

Source: patent publication US20240358841A1, “NANOMATERIALS COMPRISING TETRAVALENT LIPID COMPOUNDS” (Beam Therapeutics Inc., priority 2021, published 2024)
